From patent publication US20050107257A1, “Derivatives of (1-benzyl-piperidine-4-yl)-diphenyl-methanol and their use as pesticide” (priority 2002, published 2005)

Key:
Heliothis virescens = experiment: Action against Heliothis virescens caterpillars (sprayed soybean plants); type: in vivo; details: 144 h, 400 ppm spray mixture, first-stage caterpillars, evaluation 6 days later, read-out: % activity (percentage reduction in population and percentage reduction in feeding damage)
Procedure: Young soybean plants are sprayed with an aqueous emulsion spray mixture comprising 400 ppm of test compound. After the spray-coating has dried, the soybean plants are populated with 10 caterpillars of Heliothis virescens in the first stage and placed in a plastics container. Evaluation is made 6 days later. The percentage reduction in population and the percentage reduction in feeding damage (% activity) are determined by comparing the number of dead caterpillars and the feeding damage on the treated plants with that on untreated plants.

Plutella xylostella = experiment: Action against Plutella xylostella caterpillars (sprayed cabbage plants); type: in vivo; details: 72 h, 400 ppm spray mixture, third-stage caterpillars, evaluation 3 days later, read-out: % activity (percentage reduction in population and percentage reduction in feeding damage)
Procedure: (§1) Young cabbage plants are sprayed with an aqueous emulsion spray mixture comprising 400 ppm of test compound. After the spray-coating has dried, the cabbage plants are populated with 10 caterpillars of Plutella xylostella in the third stage and placed in a plastics container. Evaluation is made 3 days later. The percentage reduction in population and the percentage reduction in feeding damage (% activity) are determined by comparing the number of dead caterpillars and the feeding damage on the treated plants with that on the untreated plants.

Diabrotica balteata = experiment: Action against Diabrotica balteata larvae (sprayed maize seedlings); type: in vivo; details: 144 h, 400 ppm spray mixture, second-stage larvae, evaluation 6 days later, read-out: % activity (percentage reduction in population)
Procedure: Maize seedlings are sprayed with an aqueous emulsion spray mixture comprising 400 ppm of the test compound. After the spray-coating has dried, the maize seedlings are populated with 10 Diabrotica balteata larvae in the second stage and placed in a plastics container. Evaluation is made 6 days later. The percentage reduction in population (% activity) is determined by comparing the number of dead larvae on the treated plants with that on untreated plants.

Spodoptera littoralis = experiment: Action against Spodoptera littoralis caterpillars (sprayed soybean plants); type: in vivo; details: 72 h, 400 ppm spray mixture, third-stage caterpillars, evaluation 3 days later, read-out: % activity (percentage reduction in population and percentage reduction in feeding damage)
Procedure: as §1, with “Young soybean plants are” for “Young cabbage plants are”, “dried, the soybean plants are” for “dried, the cabbage plants are”, “caterpillars of Spodoptera littoralis in the” for “caterpillars of Plutella xylostella in the”, “that on untreated plants.” for “that on the untreated plants.”

melting point [°C] | SMILES | inhibition at 400 ppm (Heliothis virescens) [%] | inhibition at 400 ppm (Plutella xylostella) [%] | inhibition at 400 ppm (Diabrotica balteata) [%] | inhibition at 400 ppm (Spodoptera littoralis) [%]
207 to 211 | CCC1=C(C(O)(c2ccc(C(F)(F)F)cc2)c2ccc(C(F)(F)F)cc2)CC[N+]([O-])(Cc2ccc(NC(=O)OC(C)C)cc2)C1 (centres unmarked) [Compound 1.11] | – | – | – | –
66 to 67 | CC(C)OC(=O)Nc1ccc(CN2CC[C@@H](C(O)(c3ccc(C(F)(F)F)cc3)c3ccc(C(F)(F)F)cc3)[C@H](C)C2)cc1 [Compound 2.6] | > 80 | > 80 | > 80 | > 80
188 to 190 | CC(C)OC(=O)Nc1ccc(C[N+]2([O-])CC[C@@H](C(O)(c3ccc(C(F)(F)F)cc3)c3ccc(C(F)(F)F)cc3)[C@H](C)C2)cc1 (some centres unmarked) [Compound 2.5] | > 80 | > 80 | > 80 | > 80
